Literature values in patent US20220160668A1, “FORMULATIONS AND METHODS FOR TREATING CONDITIONS OF THE EYE” (Sight Sciences, Inc., priority 2020, published 2022).

Conditions: antibiotic level of azithromycin (1%)

Structure (SMILES): CC[C@H]1OC(=O)[C@H](C)[C@@H](O[C@H]2C[C@@](C)(OC)[C@@H](O)[C@H](C)O2)[C@H](C)[C@@H](O[C@@H]2O[C@H](C)C[C@H](N(C)C)[C@H]2O)[C@](C)(O)C[C@@H](C)CN(C)[C@H](C)[C@@H](O)[C@]1(C)O [azithromycin]
- effect on phase transition temperature of meibum lipids and lipid ordering: can improve the phase transition temperature of meibum lipids and lipid ordering
